Experimental data taken from US11596623B2, “Methods for treating virus infection or proliferation” (HOWARD UNIVERSITY, priority 2018, dated 2023).

Columns and labels:
RACK1 = target: T1, RACK1 (Homo sapiens, UniProt P63244); assay: RACK1 protein western blot in HSV-1 infected HEp-2 cells; type: cell-based; conditions: pre-treated 24 hours at 100 μM; 24 h after HSV-1 infection
T1 construct: endogenous in cells; host or cells: HEp-2 cells (human laryngeal carcinoma line), virus-infected
Description: The virus used in this diagram is an HSV-1 F strain expressing luciferase (R8411 mutant) under the control of the ICP27 promoter and was a gift from Prof. Bernard Roizman (University of Chicago). HEp-2 cells were grown to 80-90% confluency in Dulbecco's Modified Eagle's medium (DMEM) supplemented with 10% fetal calf serum (PCS) and 1% penicillin-streptomycin (PS) and fungicide. The HSV-1 virus and the indicated concentration of compound(s) were added and incubated for 24 h (A of FIG. 13 and B of FIG. 13) and for 48 h in panel C samples. The luciferase signals were imaged and quantified in a Perkin Elmer IVIS Spectrum Imaging system. […] Three replicates from two separate experiments were combined to generate the average and the standard error bar. […] The compound(s) inhibit Y248 phosphorylation of RACK1 protein.
Proteins were separated by SDS-PAGE (25 μg loaded in each lane), transferred to nitrocellulose membranes (Amersham Inc., Piscataway, N.J., USA), and blocked with 5% nonfat milk for 60 min at room temperature. Membranes were incubated overnight at 4° C. with primary antibody, followed by incubation with a horseradish peroxidase-coupled secondary antibody and detection with enhanced chemiluminescence (Pierce, Rockford, Ill., USA), according to standard methods. […]

RACK1A protein = assay: RACK1 protein expression under salt stress, western blot; type: in vivo; conditions: Arabidopsis lysates
Text: The abundant leaf protein Rubisco large subunit (RbcL) was used as a loading control for the blot. The 37 kD RACK1 band was absent from the genetic knockout of RACK1 plants (double mutant-rack1ab lane).
The reported positive expression of RACK1A protein under salt stress condition in Arabidopsis has led us to examine the RACK1A expression in the presence and absence of the inhibitor compounds during salt stresses. We determined that the RACK1A protein expression was specifically modulated by the inhibitor compounds when the lysates with salt or without salt in the presence and absence of the small compounds were probed with an antibody raised by using the full length RACK1A protein as antigen (Agrisera, Vännäs, Sweden, FIG. 2C). […] However, whether the effect of SD29-12 is Arabidopsis salt stress specific condition needs further experimental evidence. As the antibody cross-reacts with all three RACK1 isoforms in Arabidopsis, we used the double knockout (rack1ab) as a negative control on the blot (triple mutant is lethal at the early seedling stage). The large subunit of the abundant leaf protein rubisco (RbcL) was used as loading control for this blot. As the results support the in-silico based prediction, we set out to investigate the effect of the compounds on the mammalian RACK1 based virus proliferation.

Nn1c(S)nnc1-c1ccc(F)cc1 [SD-29]
production of RACK1 (RACK1): reduced the production of RACK1
RACK1 protein expression under salt stress (RACK1A protein): inhibited RACK1 protein expression
